Patent publication EP1352977A2, “Novel Desulfitobacterium strain for the degradation of chloroalkenes” (UNIVERSITEIT GENT, priority 2002, dated 2003)
Entries after “also recorded” stand apart in the source; their conditions may differ.

What was measured:
Type in all cases: cell-based, Desulfitobacterium dichloroeliminans strain DCA1
[1] = system: Desulfitobacterium strain DCA1; assay: Substrate range determination: growth on and dechlorination product from chlorinated substrates
[2] = system: Desulfitobacterium strain DCA1; assay: Growth of strain DCA1 on other electron acceptors; conditions: for growth in the presence of electron acceptor: 3mM, electron donors lactate and H2
[3] = system: Desulfitobacterium strain DCA1; assay: Inhibition of 1,2-DCA dechlorination / toxicity to strain DCA1

In the case of `ClCC(Cl)CCl` [1,2,3-trichloropropane], the “dechlorination reaction” value [1] is reported as “no dechlorination reaction was observed”.

For `O=S(O)(O)=S` [S2O3^2-], the “growth in the presence of electron acceptor” value (“growth in the presence” for short) [2] was “grew”.

`ClCC(Cl)Cl` [1,1,2-TCA, 1,1,2-trichloroethane] was tested, and the “growth of strain DCA1” value [1] was “sustained growth; also recorded: supported growth”.

With `ClC(Cl)Cl` [Chloroform, reference compound] the inhibition at 50 µM ([3]; Desulfitobacterium dichloroeliminans, DCA1, read-out: inhibition of the dechlorination of 1,2-DCA) was < 50%.

For `O=C(O)[C@@H](Br)[C@@H](Br)C(=O)O` [meso-2,3-dibromosuccinate], the “dechlorination reaction” value [1] was “no dechlorination reaction was observed”.

In the case of `O=O` [O2], the “conversion as electron acceptors” value [2] is reported as “not converted”.

With `O=C(O)/C=C/C(=O)O` [Fumarate] the “conversion as electron acceptors” value [2] was “not converted” and the “toxicity to strain DCA1” value [3] was “not toxic”.

With `Cl[C@H]1[C@H](Cl)[C@@H](Cl)[C@@H](Cl)[C@H](Cl)[C@H]1Cl` [lindane] the “dechlorination reaction” value [1] was “no dechlorination reaction was observed”.

In the case of `O=NO` [NO2^-], the “conversion as electron acceptors” value [2] is reported as “not converted” and the “inhibition of the dechlorination” value ([3]; 2.5 mM) is reported as “fully inhibited”.

`CC(Cl)C(C)Cl` [D-2,3-DCB, D-2,3-dichlorobutane] was tested, and the “growth of strain DCA1” value [1] was “sustained growth”.

For `C[C@H](Cl)[C@@H](C)Cl` [meso-2,3-DCB, meso-2,3-dichlorobutane], the “growth of strain DCA1” value [1] was “sustained growth”.

`CCCI` [Propyliodide, reference compound] was tested, and the “inhibition of the dechlorination” value ([3]; 50 µM, in the dark, light reversible) was “fully inhibited”.

With `CCC(Cl)CCl` (stereo not drawn) [1,2-DCB, 1,2-dichlorobutane] the “growth of strain DCA1” value [1] was “sustained growth”.

In the case of `CC(Cl)C(C)Cl` [L-2,3-DCB, L-2,3-dichlorobutane], the “growth of strain DCA1” value [1] is reported as “sustained growth”.

`O=[N+]([O-])O` [NO3^-] was tested, and the “growth in the presence” value [2] was “grew”.

For `OCC(Cl)CCl` (stereo not drawn) [2,3-DC-propanol], the “dechlorination reaction” value [1] was “no dechlorination reaction was observed”.

For `CC(Cl)CCl` (stereo not drawn) [1,2-dichloropropane], the “growth of strain DCA1” value [1] was “sustained growth”.

`O=S(O)O` [SO3^2-] was tested, and the “growth in the presence” value [2] was “grew”.

In the case of `O=S(=O)(O)O` [SO4^2-], the “conversion as electron acceptors” value [2] is reported as “not converted”.
